Key:
[1] = from CC(C)(C)OC(=O)N1CC[C@H](Nc2cnc3ccc(OCc4ccccc4)c(O)c3c2)C[C@H]1C(=O)NCC(F)CO; ether bond; PPh3 / di-tert-butyl azodicarboxylate; toluene; 4.76 mM; 25.0 °C; 1.0 h
[2] = from CC(C)(C)OC(=O)N1CC[C@H](Nc2cnc3ccc(OCc4ccccc4)c(O)c3c2)C[C@H]1C(=O)NCC(F)CO; ether bond; 14-membered ring; PPh3/DTBAD; toluene; 4.84 mM; 25.0 °C; 1.0 h

For `CC(C)(C)OC(=O)N1CC[C@H]2C[C@H]1C(=O)NCC(F)COc1c(OCc3ccccc3)ccc3ncc(cc13)N2` (some centres unmarked), the ring closure, yield of all isomers [1] was 67% and the ring closure, isolated yield [2] was 67%.

From patent US20230357271A1, “MACROCYCLIC COMPOUND” (Asahi Kasei Pharma Corporation, priority 2020, published 2023)
